≈ marks a conversion by molar mass, not a printed value. Like-named read-outs stand apart in the source and are kept apart here.
Legend:
[1] = system: Plasmodium falciparum K1 (CQ,PY); test: [3H]hypoxanthine incorporation antimalarial assay, strain K1; format: cell-based; conditions: K1, 72 h, read-out: IC50 K1 (CQ,PY)
Method: (§1) The activity of the test compounds against P. falciparum in vitro was determined using the tritiated hypoxanthine incorporation assay of Desjardins et al. and additionally modified by Milhous and Chulay (Chulay, Haynes, & Diggs, [1983]; Milhous, Weatherly, Bowdre, & Desjardins, [1985]).
(§2) Compounds were dissolved in DMSO and subsequently diluted in the culture medium (RPMI 1640) supplemented with 10% v/v human plasma. Serial 1:2 drug dilutions were prepared in triplicate in microtitre plates. Culture medium supplemented with 10% v/v human plasma and type A Rhesus positive human erythrocytes infected with P. falciparum strains was added to yield a haematocrit of 3% and a parasitaemia of 0.25–0.55%. The plates were incubated at 37°C in a modular incubator flushed with a mixture of 5% oxygen, 3% carbon dioxide, and 92% nitrogen for 48 h, and then [^3H]hypoxanthine was added to give a final concentration of 12.5–16 μCi·ml^−1. After incubation for additional 24 h, particulate matter was harvested on fibreglass strips and hypoxanthine incorporation determined by scintillation spectrophotometry. […] Delayed death experiments were performed by this standard method but extending the incubation time with the drug up to 96 h.

[2] = system: Plasmodium falciparum FCR3 (CQ,AT); test: [3H]hypoxanthine incorporation antimalarial assay, strain FCR3; format: cell-based; conditions: FCR3, 72 h, read-out: IC50 FCR3 (CQ,AT)
Method: as §1, §2

[3] = system: Plasmodium falciparum Dd2 (CQ,Q,PY,S); test: microbe, parasite or virus in culture; format: cell-based; conditions: for IC50: Plasmodium falciparum
Method: as §1, §2

[4] = system: Plasmodium falciparum V1/S (CQ,PY); test: microbe, parasite or virus in culture; format: cell-based; conditions: 72 h, read-out: IC50 V1/S (CQ,PY)
Method: as §1, §2

[5] = system: Plasmodium falciparum T9/94 (CQ); test: [3H]hypoxanthine incorporation antimalarial assay, strain T9/94; format: cell-based; conditions: 72 h, read-out: IC50 T9/94 (CQ)
Method: as §1, §2

[6] = system: Plasmodium falciparum 7G8 (CQ, PY); test: [3H]hypoxanthine incorporation antimalarial assay, strain 7G8; format: cell-based; conditions: 7G8, 72 h, read-out: IC50 7G8 (CQ, PY)
Method: as §1, §2

haem polymerization = test: Cell-free haem polymerization assay; format: biochemical; conditions: for IC50: cell‐free, N = 2
Method: Experiments were performed according to Tripathi, Khan, Walker, and […] ([2004]). Briefly, a solution of sodium acetate containing mono-oleoyl glycol and the corresponding inhibitor at different concentrations is placed in 1.5-ml reaction tubes. […] Multiple washing steps with Tris/SDS and bicarbonate, to remove monomeric haem and haem aggregates, allow quantification of de novo formed β-haematin.

[7] = Pharmacokinetics in P. falciparum infected and uninfected humanized mice; conditions: oral 10 mg·kg^−1, mean (SD); for Cmax / Tmax: NODscidβ2m^−/−, mouse, in vivo, po, 10 mg/kg; for Cmax: C max, blood; for Tmax: t max
Method: For pharmacokinetic (PK) studies in mice, animals were dosed either by intravenous (i.v.) or oral (p.o.) route.
(§3) For studies performed in Swiss albino CD‐1 mice (Harlan Laboratories, Spain), in order to obtain simultaneous blood and plasma profiles and blood‐to‐plasma (B/P) ratio, PK was performed using terminal sampling of N = 3 animals per time point and data evaluated using composite analysis. For studies performed in P. falciparum infected and non‐infected NODscidβ2m^−/− mice (Charles River Laboratories, France), only whole blood was obtained by serial sampling of N = 3 animals using tail puncture.
(§4) For analysis of whole blood samples, 25 μl of fresh blood were mixed with 25 μl of saponin solution (0.1% in water) and immediately frozen on dry ice. Plasma was obtained by centrifugation of fresh blood at 2,500 g for 10 min. Both blood and plasma samples were stored frozen at −80°C until analysis.
(§5) Diluted blood and plasma samples were processed under standard liquid–liquid extraction procedures using acetonitrile containing internal standard (clarithromycin, 100 ng·ml^−1) and analysed by LC–MS/MS in positive ion mode with electrospray. Samples were assayed for parent compound using a Sciex API 4000 and Sciex API‐2000 Triple Quadrupole Mass Spectrometer (Sciex, Division of MDS Inc., Toronto, Canada), against a series of matrix matched calibration curve standards, using multiple reaction monitoring (MRM) at the specific transitions for each compound. Non‐compartmental analysis was performed using WinNonlin, version 4.1 (Pharsight, Mountain View, CA), and the main pharmacokinetic parameters were estimated.

[8] = system: P. falciparum 3D7^0087/N9; test: P. falciparum murine model (humanized mice), 4-day test; format: in vivo, Plasmodium falciparum
Method: The in vivo efficacy evaluation of the compounds was performed using a P. falciparum murine model of malaria in non‐myelodepleted NOD. Cg‐Prkdc^ scid –β2m^ tm1Unc ‐scid IL2R_null (NODscidβ2m^−/−) mice engrafted with human erythrocytes as described previously (Angulo‐Barturen et al., [2008]; Jimenez‐Diaz et al., [2005]; Jimenez‐Diaz et al., [2009]; Jimenez‐Diaz et al., [2009]), as this model enables testing of P. falciparum strains with high infectious burden. Briefly, groups of three mice engrafted with human erythrocytes were infected with 20 × 10^6 of P. falciparum 3D7^0087/N9‐infected erythrocytes/mouse by intravenous route. The mice were randomly assigned to their corresponding experimental groups. The treatment of oral doses QD for 4 days started at day 3 after infection. Parasitaemia was measured at days 3, 5, and 7 post‐infection. The therapeutic efficacy was expressed as the dose (mg·kg^−1) that reduced parasitaemia in peripheral blood of mice at day 7 after infection by 90% (ED90) with respect to vehicle‐treated mice. Chloroquine was included as quality control for each in vivo assay. Efficacy is expressed as the daily dose (ED90), or equivalent exposure (AUCED90), administered to mice necessary to reduce parasitaemia at day 7 by 90% with respect to vehicle‐treated mice. The ED90 is estimated by fitting a four‐decade logistic equation for the log10 [parasitaemia at day 7] versus the log10 [dose] using GraphPad Prism 5.01 (GraphPad Software Inc., San Diego, CA).

[9] = system: Plasmodium falciparum 3D7A (sensitive); design: method as in Pesic et al. ([2012]); conditions: 72 h of incubation; ref Pesic et al. ([2012]); cited from earlier work
[10] = system: Plasmodium falciparum W2 (chloroquine/pyrimethamine resistant); design: method as in Pesic et al. ([2012]); conditions: 72 h of incubation; ref Pesic et al. ([2012]); cited from earlier work
[11] = system: Plasmodium falciparum 3D7A (sensitive); test: [3H]hypoxanthine incorporation antimalarial assay, strain 3D7A; format: cell-based; conditions: 72 h of incubation, N = 3
Method: as §1, §2

[12] = system: Plasmodium falciparum W2 (chloroquine/pyrimethamine resistant); test: [3H]hypoxanthine incorporation antimalarial assay, strain W2; format: cell-based; conditions: W2, 72 h, read-out: Plasmodium falciparum IC50 W2
Method: as §1, §2

[13] = system: Plasmodium falciparum Dd2(AZ^R); test: [3H]hypoxanthine incorporation antimalarial assay, azithromycin-resistant mutant Dd2(AZ^R); format: cell-based
Method: as §1, §2

HepG2 cells = test: Cytotoxicity assay (MTS); format: cell-based, human; conditions: 24 h, N = 2
Method: The detailed protocol for cytotoxicity measurement is described elsewhere (Verbanac et al., [2005]). In brief, HepG2 cells were maintained in complete RPMI 1640 medium supplemented with 10% FBS at 37°C in a 5% CO2 atmosphere. Each culture in the 96‐well plates contained 50,000 cells which were exposed to serial dilutions (1:2) of compounds initially dissolved in DMSO and subsequently diluted in supplemented RPMI 1640 medium. Compounds were tested in duplicates, and plates were incubated for 24 h at 37°C in 5% CO2. The cytotoxicity assay was performed using the MTS CellTiter 96 AQueous One Solution Cell Proliferation Assay (Promega, USA). After the addition of MTS reagent and 2 h of incubation at 37°C in 5% CO2, the absorbance at 490 nm was recorded and Tox50 determined based on the obtained response curves.

H. influenzae ATCC49247 = test: Antibacterial screen, broth microdilution; format: cell-based; conditions: Haemophilus influenzae
Method: (§6) Antibacterial activity of compounds was determined by a standard broth microdilution method (Clinical Laboratory Standard Institute CLSI, [2009]), except that for Streptococcus strains lysed blood was substituted with 5% horse serum in the testing medium. […] The activities are expressed as minimum inhibitory concentrations (MICs) in units of μg·ml^−1. […] The organisms tested represented macrolide sensitive Gram‐positive pathogens that are mainly targeted by macrolide antibiotics. Tested streptococci were clinical isolates Streptococcus pneumoniae SP030 and Streptococcus pyogenes 3565 from internal strain collection, and other strains were obtained from ATCC bioresource centre, Staphylococcus aureus ATCC13709, Haemophilus influenzae ATCC49247, and Moraxella catarrhalis ATCC23246. Double dilutions of tested compounds were prepared using TECAN Genesis 150. Bacteria were grown on appropriate agar plates (Becton Dickinson, USA)—Columbia agar with 5% sheep blood for streptococci and M. catarrhalis, Mueller‐Hinton chocolate agar for H. influenzae , and Mueller‐Hinton agar for staphylococci.

S. aureus ATCC13709 = test: Antibacterial screen, broth microdilution; format: cell-based; conditions: Staphylococcus aureus
Method: as §6

S. pneumoniae SP030 = test: Antibacterial screen, broth microdilution; format: cell-based; conditions: Streptococcus pneumoniae
Method: as §6

S. pyogenes 3565 = test: Antibacterial screen, broth microdilution; format: cell-based; conditions: Streptococcus pyogenes
Method: as §6

M. catarrhalis ATCC23246 = test: Antibacterial screen, broth microdilution; format: cell-based, Moraxella catarrhalis
Method: as §6

[14] = Pharmacokinetic studies in CD-1 mice
Method: For pharmacokinetic (PK) studies in mice, animals were dosed either by intravenous (i.v.) or oral (p.o.) route. For i.v. administration, the dosing volume was 10 ml·kg^−1 for a total dose of 12.5 mg·kg^−1, and for p.o. administration, the dosing volume was 20 ml·kg^−1 for a total dose of 12.5 mg·kg^−1. Dosing solutions were prepared in 100% saline ([…]) both for i.v. and p.o. administration for all compounds with the exception of compound 4 for which dosing solutions were prepared in PBS with 5% Cremophor‐EL (Fluka). Following i.v. dosing, blood samples were collected at 5 and 15 min, 1, 3, 6, 8, 24, and 48 h post‐dose. Following oral dosing, blood samples were collected at 15 and 30 min, 1, 2, 4, 6, 8, 24, and 48 h post‐dose.
as §3, §4, §5

[15] = Swiss albino CD-1, mouse, whole blood, iv, 12.5 mg/kg

Which results are given for `CCN(CC)CCCC(C)Nc1ccnc2cc(Cl)ccc12` (stereo not drawn) [Chloroquine, reference compound]?
IC50 [1]: 313 nM; IC50 [2]: 138 nM; IC50 ([3]; DD2, 72 h, read-out: IC50 Dd2 (CQ,Q,PY,S)): 356 nM; IC50 [4]: 388 nM; IC50 [5]: 178 nM; IC50 [6]: 194 nM; IC50 (haem polymerization): 3800 to 10600 nM; Cmax ([7]; infected (I) humanized mice): 210 ng/mL; Cmax ([7]; uninfected (U) humanized mice): 72.3 ng/mL; Tmax ([7]; infected (I) humanized mice): 2.33 h; Tmax ([7]; uninfected (U) humanized mice): 1.92 h; DNAUC(0–24) ([7]; infected (I) humanized mice): 200 (13) ng*h·ml^−1·mg^−1·kg^−1; DNAUC(0–24) ([7]; uninfected (U) humanized mice): 63 (23) ng*h·ml^−1·mg^−1·kg^−1; mice with no detectable parasitaemia at day 35 ([8]; 100 mg·kg^−1, groups of three mice): all mice; AUCED90 (daily molar exposure for 90% parasitaemia reduction) ([8]; humanized mice, oral): 3.1 μM·h^−1·day^−1; IC50 [9]: 16 nM; IC50 [10]: 431 nM

With `CC[C@H]1OC(=O)[C@H](C)[C@@H](O[C@H]2C[C@@](C)(OC)[C@@H](O)[C@H](C)O2)[C@H](C)[C@@H](O[C@@H]2O[C@H](C)C[C@H](N(C)C(C)=O)[C@H]2O)[C@](C)(O)C[C@@H](C)CN(CCCNC(=O)Nc2ccc3ccccc3c2)[C@H](C)[C@@H](O)[C@]1(C)O` [Compound 4] as the molecule, how does the IC50 [11] read?
The IC50 was 13 nM.

And the IC50 [12]?
Its IC50 is 19 nM.

And the Delayed death phenotype ([3]; Dd2 and Dd2(AZ^R), 48 versus 96 h)?
Its Delayed death phenotype is “No”.

What about the IC50 ([3]; DD2, 48 h, read-out: IC50 Dd2 48 h) of the same molecule?
The IC50 was 65 nM.

What about the IC50 ([3]; DD2, 96 h, read-out: IC50 Dd2 96 h) of the same molecule?
The IC50 was 70 nM.

And the IC50 ([13]; DD2, 48 h, read-out: IC50 Dd2(AZ^R) 48 h)?
Its IC50 is 68 nM.

What about the IC50 ([13]; DD2, 96 h, read-out: IC50 Dd2(AZ^R) 96 h) of the same molecule?
The IC50 was 53 nM.

What about the “Tox50 HepG2” value (HepG2 cells) of the same molecule?
Its value is 38 µM.

And the IC50 (haem polymerization)?
Its IC50 is 46300 nM.

And the “weaker potency in haem polymerization” value (haem polymerization; compared with compounds 1, 2, 3 and chloroquine)?
Its value is ~ 10 fold.

And the MIC (H. influenzae ATCC49247)?
The MIC was > 64 µg/mL.

What about the MIC (S. aureus ATCC13709) of the same molecule?
Its MIC is > 64 µg/mL.

And the MIC (S. pneumoniae SP030)?
The MIC was > 64 µg/mL.

And the MIC (S. pyogenes 3565)?
Its MIC is > 64 µg/mL.

What about the “activity against M. catarrhalis (in words)” value (M. catarrhalis ATCC23246) of the same molecule?
The value was “only minor activity”.

What about the MIC (M. catarrhalis ATCC23246; Moraxella catarrhalis, ATCC23246, broth microdilution) of the same molecule?
Its MIC is 32 µg/mL (≈ 32.3 µM).

What about the “B/P (ratio of AUC0−t in whole blood and plasma)” value ([14]; CD‐1 mice, after oral administration) of the same molecule?
The value was 0.4.

And the “DNAUCPO (AUC0−t divided by the dose)” value ([14]; CD‐1 mice, blood, oral gavage 12.5 mg·kg^−1)?
Its value is 0.3 ng·kg·h/mL/mg.

What about the half-life ([14]; Swiss albino CD-1, mouse, whole blood, intravenous, 12.5 mg/kg) of the same molecule?
The half-life was 3.76 h.

And the Vd [14, 15]?
Its Vd is 0.708 L/kg.

What about the clearance [14, 15] of the same molecule?
Its clearance is 14.8 mL/min/kg.

And the bioavailability ([14]; Swiss albino CD-1, mouse, whole blood, po, 12.5 mg/kg, F, CD‐1 mice, 12.5 mg·kg^−1 i.v. and p.o.)?
The bioavailability was < 1%.

Source: PMC9328652, “A novel class of fast‐acting antimalarial agents: Substituted 15‐membered azalides” (British Journal of Pharmacology, 2020)
